pIC50: −log10 of the molar value.
Tests used:
[1] = tested on: Jurkat cells; assay: Inhibition of proliferation of T lymphocytic leukemia cells Jurkat (cell viability assay, 96 h); format: cell-based, human; conditions: read-out: inhibitory activity (IC50) against tumor cells proliferation, Jurkat
Experimental: (§1) The tumor cells used herein were cultured in a cell culture medium listed in table 2 at 37 °C in an incubator with 5% CO2. Prior to experimentation, all cell lines used were correctly identified by STR profiling, and tested negative for Mycoplasma contamination using a Mycoplasma detection kit through routine screenings.
(§2) The IC50 values of the compounds of the present disclosure (including the compounds in Table 1, and Examples 1-498) were determined using the CellTiter-Meiluncell Luminescent Cell Viability Assay Kit from Dalian Meilun Biotech Co., Ltd. The detailed procedure is as follows: Tumor cells were seeded in 96-well cell culture plates at the densities specified in Table 3. On the following day, the test compounds of the present disclosure were subjected to serial dilution. […] Subsequently, 0.5 μL of the test compound dilution was transferred into the 96-well plate containing the cells, with each well containing 100 μL of cell culture medium. […] Into the 96-well plate, the diluted test compounds and corresponding detection reagents were added, resulting in final test compound concentrations of 500 nM and 10 nM, respectively. The experimental procedure is described below using the diluted 2 μM test compound as an example.
(§3) 0.5 μL of the aforementioned diluted compound of the present disclosure (including the compounds in Table 1, and Examples 1-498) was added to the seeded cells in 100 μL of medium, yielding a final test compound concentration of 10 nM. After the cells were treated with the compounds of the present disclosure for a specified period, the cell viability assay reagent was added to the culture medium according to the kit's instructions to determine cell viability. […] All controls were treated using the same procedure as the compounds of the present disclosure. The growth inhibition curves for the compounds of the present disclosure were plotted using Prism GraphPad software, and the IC50 values were calculated therefrom.

[2] = biological target: T1, GSPT1 (Homo sapiens, UniProt P15170+Q96SW2); assay: Western blot degradation of GSPT1 in hPBMCs (24 h); format: cell-based; conditions: compounds at 50 nM and 500 nM
T1 construct: The supernatant was aspirated as the extracted total cell protein; endogenous in cells; host or cells: human peripheral blood mononuclear cells (hPBMCs)
Method in brief: (§4)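 Immunoblot densitometry quantifies target loss in hPBMCs after a 24 h compound exposure (50 nM, 500 nM). Percent remaining is normalised band intensity; DC50 is the concentration giving half the DMSO-control band grayscale.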

[3] = biological target: T2, IKZF3 (Homo sapiens, UniProt Q96SW2+Q9UKT9); assay: Western blot degradation of IKZF3 in hPBMCs (24 h); format: cell-based; conditions: compounds at 50 nM and 500 nM
T2 construct: The supernatant was aspirated as the extracted total cell protein; endogenous in cells; host or cells: human peripheral blood mononuclear cells (hPBMCs)
Method in brief: as §4

[4] = biological target: T3, WEE1 (Homo sapiens, UniProt P30291+Q96SW2); assay: Western blot degradation of WEE1 in hPBMCs (24 h); format: cell-based; conditions: compounds at 50 nM and 500 nM
T3 construct: The supernatant was aspirated as the extracted total cell protein; endogenous in cells; host or cells: human peripheral blood mononuclear cells (hPBMCs)
Method in brief: as §4

[5] = biological target: T4, IKZF2 (Homo sapiens, UniProt Q96SW2+Q9UKS7); assay: Western blot degradation of IKZF2 in hPBMCs (24 h); format: cell-based; conditions: compounds at 50 nM and 500 nM
T4 construct: The supernatant was aspirated as the extracted total cell protein; endogenous in cells; host or cells: human peripheral blood mononuclear cells (hPBMCs)
Method in brief: as §4

[6] = tested on: MM.1S cells; assay: Inhibition of proliferation of multiple myeloma cells MM.1S (cell viability assay, 96 h); format: cell-based, human; conditions: read-out: inhibitory activity (IC50) against tumor cells proliferation, MM.1S
Experimental: as §1, §2, §3

[7] = biological target: T5, CK1α (Homo sapiens, UniProt P48729+Q96SW2); assay: Western blot degradation of CK1α in hPBMCs (24 h); format: cell-based; conditions: compounds at 50 nM and 500 nM
T5 construct: The supernatant was aspirated as the extracted total cell protein; endogenous in cells; host or cells: human peripheral blood mononuclear cells (hPBMCs)
Method in brief: as §4

[8] = biological target: T6, IKZF1 (Homo sapiens, UniProt Q13422+Q96SW2); assay: Western blot degradation of IKZF1 in hPBMCs (24 h); format: cell-based; conditions: compounds at 50 nM and 500 nM
T6 construct: The supernatant was aspirated as the extracted total cell protein; endogenous in cells; host or cells: human peripheral blood mononuclear cells (hPBMCs)
Method in brief: as §4

T3 sequence (P30291 whole entry): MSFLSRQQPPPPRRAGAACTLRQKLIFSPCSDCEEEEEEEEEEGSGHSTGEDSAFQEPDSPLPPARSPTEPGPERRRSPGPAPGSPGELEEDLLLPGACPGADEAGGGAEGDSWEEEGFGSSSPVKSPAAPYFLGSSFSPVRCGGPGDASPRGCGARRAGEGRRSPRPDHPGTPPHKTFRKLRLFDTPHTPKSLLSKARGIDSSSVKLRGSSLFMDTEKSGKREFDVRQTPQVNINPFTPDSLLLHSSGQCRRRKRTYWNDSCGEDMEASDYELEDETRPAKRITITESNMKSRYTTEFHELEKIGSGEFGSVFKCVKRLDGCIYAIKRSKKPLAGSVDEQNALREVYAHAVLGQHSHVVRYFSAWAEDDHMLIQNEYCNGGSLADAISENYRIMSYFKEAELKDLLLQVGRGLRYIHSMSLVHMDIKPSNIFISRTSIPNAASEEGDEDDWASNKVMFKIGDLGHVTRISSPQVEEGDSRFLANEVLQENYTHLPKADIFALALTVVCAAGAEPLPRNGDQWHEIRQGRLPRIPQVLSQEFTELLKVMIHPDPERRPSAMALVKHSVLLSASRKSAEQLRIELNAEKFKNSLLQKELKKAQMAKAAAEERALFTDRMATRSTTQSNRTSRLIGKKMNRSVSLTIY
T3 sequence (Q96SW2 whole entry): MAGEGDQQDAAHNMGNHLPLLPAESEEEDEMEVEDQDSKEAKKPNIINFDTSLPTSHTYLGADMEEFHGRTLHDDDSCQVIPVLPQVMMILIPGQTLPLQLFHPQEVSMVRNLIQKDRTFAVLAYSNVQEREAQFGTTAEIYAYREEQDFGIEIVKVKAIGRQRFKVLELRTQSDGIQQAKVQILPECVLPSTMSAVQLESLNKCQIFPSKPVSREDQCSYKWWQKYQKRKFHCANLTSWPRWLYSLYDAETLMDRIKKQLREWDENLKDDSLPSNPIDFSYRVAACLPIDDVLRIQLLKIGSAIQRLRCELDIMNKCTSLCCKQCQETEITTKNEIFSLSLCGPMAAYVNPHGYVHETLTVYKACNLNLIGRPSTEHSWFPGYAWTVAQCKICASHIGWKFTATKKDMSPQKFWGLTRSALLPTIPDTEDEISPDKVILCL
T3 sequence (Q16531 whole entry partner): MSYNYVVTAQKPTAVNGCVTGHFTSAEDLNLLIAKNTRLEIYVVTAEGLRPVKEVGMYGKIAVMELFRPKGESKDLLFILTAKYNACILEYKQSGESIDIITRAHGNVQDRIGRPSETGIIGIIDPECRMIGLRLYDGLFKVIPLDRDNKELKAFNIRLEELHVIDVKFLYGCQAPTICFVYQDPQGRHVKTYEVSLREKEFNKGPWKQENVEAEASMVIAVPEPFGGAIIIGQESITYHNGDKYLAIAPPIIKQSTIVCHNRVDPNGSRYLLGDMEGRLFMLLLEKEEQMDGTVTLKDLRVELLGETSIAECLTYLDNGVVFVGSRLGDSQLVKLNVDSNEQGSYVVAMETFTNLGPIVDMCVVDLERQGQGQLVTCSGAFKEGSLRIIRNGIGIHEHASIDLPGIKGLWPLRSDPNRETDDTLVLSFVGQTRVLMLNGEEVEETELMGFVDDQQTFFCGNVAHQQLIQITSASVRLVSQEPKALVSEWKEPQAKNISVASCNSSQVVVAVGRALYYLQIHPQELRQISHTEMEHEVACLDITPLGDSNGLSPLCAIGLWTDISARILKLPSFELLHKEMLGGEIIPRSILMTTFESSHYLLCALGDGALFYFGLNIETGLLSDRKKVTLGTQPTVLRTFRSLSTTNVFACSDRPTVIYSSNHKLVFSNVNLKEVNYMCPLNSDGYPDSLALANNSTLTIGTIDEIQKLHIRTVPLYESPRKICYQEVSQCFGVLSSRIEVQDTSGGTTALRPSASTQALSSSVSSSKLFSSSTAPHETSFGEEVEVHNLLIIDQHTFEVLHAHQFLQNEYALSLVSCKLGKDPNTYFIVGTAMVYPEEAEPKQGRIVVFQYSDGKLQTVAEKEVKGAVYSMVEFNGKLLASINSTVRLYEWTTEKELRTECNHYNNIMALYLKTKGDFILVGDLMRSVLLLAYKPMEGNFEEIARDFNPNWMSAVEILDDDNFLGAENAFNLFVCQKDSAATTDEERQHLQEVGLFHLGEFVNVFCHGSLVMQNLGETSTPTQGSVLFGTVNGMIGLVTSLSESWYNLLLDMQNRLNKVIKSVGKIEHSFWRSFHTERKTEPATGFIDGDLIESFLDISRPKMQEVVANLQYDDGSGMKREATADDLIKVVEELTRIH
T1 sequence (P15170 whole entry): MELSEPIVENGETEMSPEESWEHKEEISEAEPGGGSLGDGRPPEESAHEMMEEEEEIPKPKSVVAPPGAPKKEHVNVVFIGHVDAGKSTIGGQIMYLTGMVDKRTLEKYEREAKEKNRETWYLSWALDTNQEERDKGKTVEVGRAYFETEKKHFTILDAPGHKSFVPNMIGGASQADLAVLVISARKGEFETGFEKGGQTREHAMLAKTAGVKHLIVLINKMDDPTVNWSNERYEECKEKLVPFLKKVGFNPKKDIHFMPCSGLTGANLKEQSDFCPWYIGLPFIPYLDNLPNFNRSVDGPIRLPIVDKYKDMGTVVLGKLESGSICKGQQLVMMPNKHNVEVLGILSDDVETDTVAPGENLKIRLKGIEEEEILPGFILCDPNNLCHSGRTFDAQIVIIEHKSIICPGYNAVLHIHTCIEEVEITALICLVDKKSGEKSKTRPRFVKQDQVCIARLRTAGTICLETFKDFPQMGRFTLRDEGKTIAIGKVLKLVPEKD
T1 sequence (Q96SW2 whole entry): as the sequence (Q96SW2 whole entry) above
T1 sequence (Q16531 whole entry partner): as the sequence (Q16531 whole entry partner) above
T6 sequence (Q13422 whole entry): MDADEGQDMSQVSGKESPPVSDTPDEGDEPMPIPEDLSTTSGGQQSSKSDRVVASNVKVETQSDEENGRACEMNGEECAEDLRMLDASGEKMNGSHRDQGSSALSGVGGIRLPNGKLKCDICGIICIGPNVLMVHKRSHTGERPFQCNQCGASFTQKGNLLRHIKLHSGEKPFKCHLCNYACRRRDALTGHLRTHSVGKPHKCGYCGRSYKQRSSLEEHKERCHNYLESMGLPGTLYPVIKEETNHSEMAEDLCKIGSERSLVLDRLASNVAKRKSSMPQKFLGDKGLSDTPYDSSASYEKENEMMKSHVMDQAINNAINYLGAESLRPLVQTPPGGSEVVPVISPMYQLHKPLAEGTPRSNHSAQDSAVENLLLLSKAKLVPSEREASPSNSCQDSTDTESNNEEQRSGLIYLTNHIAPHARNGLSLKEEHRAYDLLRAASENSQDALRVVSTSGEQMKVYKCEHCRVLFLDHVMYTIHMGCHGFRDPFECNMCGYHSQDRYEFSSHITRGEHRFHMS
T6 sequence (Q96SW2 whole entry): as the sequence (Q96SW2 whole entry) above
T6 sequence (Q16531 whole entry partner): as the sequence (Q16531 whole entry partner) above
T5 sequence (P48729 whole entry): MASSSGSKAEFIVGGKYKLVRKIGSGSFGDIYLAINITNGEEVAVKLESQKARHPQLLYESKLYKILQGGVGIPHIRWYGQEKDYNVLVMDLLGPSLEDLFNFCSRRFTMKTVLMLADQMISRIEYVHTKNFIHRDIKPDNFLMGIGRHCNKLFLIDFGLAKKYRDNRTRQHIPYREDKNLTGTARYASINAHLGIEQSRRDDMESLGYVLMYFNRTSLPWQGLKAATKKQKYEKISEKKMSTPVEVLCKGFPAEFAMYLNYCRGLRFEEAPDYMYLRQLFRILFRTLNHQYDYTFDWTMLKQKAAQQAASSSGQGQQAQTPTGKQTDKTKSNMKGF
T5 sequence (Q96SW2 whole entry): as the sequence (Q96SW2 whole entry) above
T5 sequence (Q16531 whole entry partner): as the sequence (Q16531 whole entry partner) above
T2 sequence (Q9UKT9 whole entry): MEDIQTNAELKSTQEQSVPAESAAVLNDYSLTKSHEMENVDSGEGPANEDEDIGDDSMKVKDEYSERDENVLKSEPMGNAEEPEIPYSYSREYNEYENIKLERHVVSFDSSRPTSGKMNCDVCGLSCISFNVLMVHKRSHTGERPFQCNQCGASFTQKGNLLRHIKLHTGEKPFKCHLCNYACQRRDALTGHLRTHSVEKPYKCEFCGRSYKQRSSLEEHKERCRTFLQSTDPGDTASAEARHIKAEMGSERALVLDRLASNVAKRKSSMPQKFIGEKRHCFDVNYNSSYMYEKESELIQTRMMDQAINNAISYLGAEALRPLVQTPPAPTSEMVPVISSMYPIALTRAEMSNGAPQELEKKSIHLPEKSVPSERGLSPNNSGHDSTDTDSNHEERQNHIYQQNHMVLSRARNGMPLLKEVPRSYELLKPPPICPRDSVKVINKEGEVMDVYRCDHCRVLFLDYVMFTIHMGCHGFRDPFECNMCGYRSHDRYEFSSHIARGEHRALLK
T2 sequence (Q96SW2 whole entry): as the sequence (Q96SW2 whole entry) above
T2 sequence (Q16531 whole entry partner): as the sequence (Q16531 whole entry partner) above

Compound	pIC50 [1]	GSPT1 substrate protein remaining % [2]	IKZF3 substrate protein remaining % [3]	WEE1 substrate protein remaining % [4]	IKZF2 substrate protein remaining % [5]	pIC50 [6]	CK1α substrate protein remaining % [7]	IKZF1 substrate protein remaining % [8]
O=C1CCN(N2Cc3cc(CN4CCN(C(c5cccc(F)c5)c5cccc(F)c5)CC4)ccc3C2=O)C(=O)N1 [GT-07293, 1-(5-((4-(bis(3-fluorophenyl)methyl)piperazin-1-yl)methyl)-1-oxoisoindolin-2-yl)dihydropyrimidine-2,4(1H,3H)-dione]	6.52 to 7.00	A (0% ≤ substrate protein remaining % ≤80%)	A (0% ≤ substrate protein remaining % ≤80%)	A (0% ≤ substrate protein remaining % ≤80%)	A (0% ≤ substrate protein remaining % ≤80%)	6.52 to 7.00	B (80%< substrate protein remaining % ≤100%)	B (80%< substrate protein remaining % ≤100%)
O=C1CCN(N2Cc3cc(CN4CCC(c5cccs5)CC4)ccc3C2=O)C(=O)N1 [GT-07511, 1-(1-oxo-5-((4-(thiophen-2-yl)piperidin-1-yl)methyl)isoindolin-2-yl)dihydropyrimidine-2,4(1H,3H)-dione]	6.00 to 6.30	A (0% ≤ substrate protein remaining % ≤80%)	B (80%< substrate protein remaining % ≤100%)	A (0% ≤ substrate protein remaining % ≤80%)	A (0% ≤ substrate protein remaining % ≤80%)	6.00 to 6.30	A (0% ≤ substrate protein remaining % ≤80%)	A (0% ≤ substrate protein remaining % ≤80%)
Cn1cc(C2CCN(Cc3ccc4c(c3)CN(N3CCC(=O)NC3=O)C4=O)CC2)c2ccc(F)cc21 [GT-07575, 1-(5-((4-(6-fluoro-1-methyl-1H-indol-3-yl)piperidin-1-yl)methyl)-1-oxoisoindolin-2-yl)dihydropyrimidine-2,4(1H,3H)-dione]	6.52 to 7.00	A (0% ≤ substrate protein remaining % ≤80%)	A (0% ≤ substrate protein remaining % ≤80%)	A (0% ≤ substrate protein remaining % ≤80%)	A (0% ≤ substrate protein remaining % ≤80%)	6.52 to 7.00	A (0% ≤ substrate protein remaining % ≤80%)	A (0% ≤ substrate protein remaining % ≤80%)
O=C1CCN(N2Cc3cc(CN4CC=C(c5ccco5)CC4)ccc3C2=O)C(=O)N1 [GT-04874, 1-(5-((4-(furan-2-yl)-3,6-dihydropyridin-1(2H)-yl)methyl)-1-oxoisoindolin-2-yl)dihydropyrimidine-2,4(1H,3H)-dione]	6.00 to 6.30	A (0% ≤ substrate protein remaining % ≤80%)	A (0% ≤ substrate protein remaining % ≤80%)	A (0% ≤ substrate protein remaining % ≤80%)	B (80%< substrate protein remaining % ≤100%)	6.52 to 7.00	B (80%< substrate protein remaining % ≤100%)	A (0% ≤ substrate protein remaining % ≤80%)
O=C1CCN(N2C(=O)c3ccc(CN4CCN(c5ncc(C(F)(F)F)cc5Cl)CC4)cc3C2=O)C(=O)N1 [GT-07026, 5-((4-(3-chloro-5-(trifluoromethyl)pyridin-2-yl)piperazin-1-yl)methyl)-2-(2,4-dioxotetrahydropyrimidin-1(2H)-yl)isoindoline-1,3-dione]	6.00 to 6.30	A (0% ≤ substrate protein remaining % ≤80%)	B (80%< substrate protein remaining % ≤100%)	A (0% ≤ substrate protein remaining % ≤80%)	B (80%< substrate protein remaining % ≤100%)	–	B (80%< substrate protein remaining % ≤100%)	B (80%< substrate protein remaining % ≤100%)
O=C1CCN(N2Cc3cc(CN4CCC(N5CCc6cc(F)ccc65)CC4)ccc3C2=O)C(=O)N1 [GT-05165, 1-(5-((4-(5-fluoroindolin-1-yl)piperidin-1-yl)methyl)-1-oxoisoindolin-2-yl)dihydropyrimidine-2,4(1H,3H)-dione]	–	A (0% ≤ substrate protein remaining % ≤80%)	B (80%< substrate protein remaining % ≤100%)	B (80%< substrate protein remaining % ≤100%)	A (0% ≤ substrate protein remaining % ≤80%)	6.00 to 6.30	B (80%< substrate protein remaining % ≤100%)	B (80%< substrate protein remaining % ≤100%)
O=C1CCN(N2Cc3cc(CN4CC=C(c5ccoc5)CC4)ccc3C2=O)C(=O)N1 [GT-04875, 1-(5-((4-(furan-3-yl)-3,6-dihydropyridin-1(2H)-yl)methyl)-1-oxoisoindolin-2-yl)dihydropyrimidine-2,4(1H,3H)-dione]	–	A (0% ≤ substrate protein remaining % ≤80%)	B (80%< substrate protein remaining % ≤100%)	A (0% ≤ substrate protein remaining % ≤80%)	B (80%< substrate protein remaining % ≤100%)	6.30 to 6.52	B (80%< substrate protein remaining % ≤100%)	B (80%< substrate protein remaining % ≤100%)
Cc1ccc(C2CCN(Cc3ccc4c(c3)CN(N3CCC(=O)NC3=O)C4=O)CC2)s1 [GT-07425, 1-(5-((4-(5-methylthiophen-2-yl)piperidin-1-yl)methyl)-1-oxoisoindolin-2-yl)dihydropyrimidine-2,4(1H,3H)-dione]	–	A (0% ≤ substrate protein remaining % ≤80%)	B (80%< substrate protein remaining % ≤100%)	B (80%< substrate protein remaining % ≤100%)	B (80%< substrate protein remaining % ≤100%)	6.00 to 6.30	B (80%< substrate protein remaining % ≤100%)	B (80%< substrate protein remaining % ≤100%)
O=C1CCN(N2Cc3cc(CN4CC(=C5CCOc6cc(F)ccc65)C4)ccc3C2=O)C(=O)N1 [GT-05168, 1-(5-((3-(7-fluorochroman-4-ylidene)azetidin-1-yl)methyl)-1-oxoisoindolin-2-yl)dihydropyrimidine-2,4(1H,3H)-dione]	–	A (0% ≤ substrate protein remaining % ≤80%)	A (0% ≤ substrate protein remaining % ≤80%)	B (80%< substrate protein remaining % ≤100%)	B (80%< substrate protein remaining % ≤100%)	6.52 to 7.00	B (80%< substrate protein remaining % ≤100%)	B (80%< substrate protein remaining % ≤100%)
